# Test results taken from patent US20230148599A1, “FUNGICIDAL MIXTURES CONTAINING PYRAZOLE DERIVATIVES” (FMC Corporation, priority 2020, published 2023).
# System: Septoria tritici
# Assay: Test A: wheat leaf blotch, preventive spray on wheat seedlings
# Format: in vivo
# Details: 50 ppm, 100 = 100% disease control, 0 = no control
# Text: (§1) General protocol for preparing test suspensions for Tests A-F: the test compounds were first dissolved in acetone in an amount equal to 3% of the final volume and then suspended at the desired concentration (in ppm) in acetone and purified water (50/50 mix by volume) containing 250 ppm of the surfactant PEG400 (polyhydric alcohol esters). The resulting test suspensions were then used in Tests A-F.
# (§2) The test solution was sprayed to the point of run-off on wheat seedlings. The following day the seedlings were inoculated with a spore suspension of Septoria tritici (the causal agent of wheat leaf blotch) and incubated in a saturated atmosphere at 24° C. for 48 h, and then moved to a growth chamber at 20° C. for 17 days, after which time disease ratings were made.
# (§3) A rating of 100 indicates 100% disease control and a rating of 0 indicates no disease control (relative to the controls). A dash (−) indicates the compound was not tested.
row,Structure (SMILES),Test A disease control rating [%]
1,Cc1ccc(Nc2c(-c3ccc(F)cc3Cl)c(C)nn2C)c([N+](=O)[O-])c1 [compound 26],100
2,COc1ccc(-c2c(C)nn(C)c2Nc2c(F)cccc2[N+](=O)[O-])c(Cl)c1 [compound 27],100
3,Cc1nn(C)c(Nc2ccc(OC(F)F)cc2[N+](=O)[O-])c1-c1ccc(F)cc1Cl [compound 28],91
4,Cc1nn(C)c(Nc2ccc(OCC#N)cc2[N+](=O)[O-])c1-c1ccc(F)cc1Cl [compound 29],97
5,Cc1nn(C)c(Nc2cc(F)ccc2[N+](=O)[O-])c1-c1ccc(F)cc1Cl [compound 30],100
6,Cc1cc(Cl)c(Nc2c(-c3ccc(F)cc3Cl)c(C)nn2C)c([N+](=O)[O-])c1 [compound 31],100
7,Cc1nn(C)c(Nc2cc(F)c(F)cc2[N+](=O)[O-])c1-c1ccc(F)cc1Cl [compound 32],93
8,Cc1cc(Cl)cc([N+](=O)[O-])c1Nc1c(-c2ccc(F)cc2Cl)c(C)nn1C [compound 33],100
9,COc1ccc(-c2c(C)nn(C)c2Nc2c(Cl)cccc2[N+](=O)[O-])c(C)c1 [compound 35],99
10,Cc1nn(C)c(Nc2ccc(OCC(F)F)cc2[N+](=O)[O-])c1-c1ccc(F)cc1Cl [compound 36],100
11,Cc1nn(C)c(Nc2c(Cl)cc(Cl)cc2[N+](=O)[O-])c1-c1ccc(F)cc1Br [compound 37],100
12,Cc1nn(C)c(Nc2c(Cl)cccc2[N+](=O)[O-])c1-c1c(F)cccc1Cl [compound 38],100

# System: Alternaria solani
# Assay: Test F: tomato early blight, preventive spray on tomato seedlings
# Format: in vivo
# Details: 50 ppm, 100 = 100% disease control, 0 = no control
# Text: as §1
# (§4) The test suspension was sprayed to the point of run-off on tomato seedlings. The following day the seedlings were inoculated with a spore suspension of Alternaria solani (the causal agent of tomato early blight) and incubated in a saturated atmosphere at 27° C. for 48 h, and then moved to a growth chamber at 20° C. for 3 days, after which time visual disease ratings were made.
# as §3
row,Structure (SMILES),Test F disease control rating [%]
1,Cc1ccc(Nc2c(-c3ccc(F)cc3Cl)c(C)nn2C)c([N+](=O)[O-])c1 [compound 26],68
2,COc1ccc(-c2c(C)nn(C)c2Nc2c(F)cccc2[N+](=O)[O-])c(Cl)c1 [compound 27],99
3,Cc1nn(C)c(Nc2ccc(OC(F)F)cc2[N+](=O)[O-])c1-c1ccc(F)cc1Cl [compound 28],0
4,Cc1nn(C)c(Nc2ccc(OCC#N)cc2[N+](=O)[O-])c1-c1ccc(F)cc1Cl [compound 29],26
5,Cc1nn(C)c(Nc2cc(F)ccc2[N+](=O)[O-])c1-c1ccc(F)cc1Cl [compound 30],0
6,Cc1cc(Cl)c(Nc2c(-c3ccc(F)cc3Cl)c(C)nn2C)c([N+](=O)[O-])c1 [compound 31],76
7,Cc1nn(C)c(Nc2cc(F)c(F)cc2[N+](=O)[O-])c1-c1ccc(F)cc1Cl [compound 32],0
8,Cc1cc(Cl)cc([N+](=O)[O-])c1Nc1c(-c2ccc(F)cc2Cl)c(C)nn1C [compound 33],85
9,COc1ccc(-c2c(C)nn(C)c2Nc2c(Cl)cccc2[N+](=O)[O-])c(C)c1 [compound 35],0
10,Cc1nn(C)c(Nc2ccc(OCC(F)F)cc2[N+](=O)[O-])c1-c1ccc(F)cc1Cl [compound 36],0
11,Cc1nn(C)c(Nc2c(Cl)cc(Cl)cc2[N+](=O)[O-])c1-c1ccc(F)cc1Br [compound 37],78
12,Cc1nn(C)c(Nc2c(Cl)cccc2[N+](=O)[O-])c1-c1c(F)cccc1Cl [compound 38],0

# System: Phakopsora pachyrhizi
# Assay: Test D: Asian soybean rust, preventive spray on soybean seedlings
# Format: in vivo
# Details: 50 ppm, 100 = 100% disease control, 0 = no control
# Text: as §1
# The test solution was sprayed to the point of run-off on soybean seedlings. The following day the seedlings were inoculated with a spore suspension of Phakopsora pachyrhizi (the causal agent of Asian soybean rust) and incubated in a saturated atmosphere at 22° C. for 24 h and then moved to a growth chamber at 22° C. for 8 days, after which time visual disease ratings were made.
# as §3
row,Structure (SMILES),Test D disease control rating [%]
1,Cc1ccc(Nc2c(-c3ccc(F)cc3Cl)c(C)nn2C)c([N+](=O)[O-])c1 [compound 26],77
2,COc1ccc(-c2c(C)nn(C)c2Nc2c(F)cccc2[N+](=O)[O-])c(Cl)c1 [compound 27],87
3,Cc1nn(C)c(Nc2ccc(OC(F)F)cc2[N+](=O)[O-])c1-c1ccc(F)cc1Cl [compound 28],0
4,Cc1nn(C)c(Nc2ccc(OCC#N)cc2[N+](=O)[O-])c1-c1ccc(F)cc1Cl [compound 29],81
5,Cc1nn(C)c(Nc2cc(F)ccc2[N+](=O)[O-])c1-c1ccc(F)cc1Cl [compound 30],0
6,Cc1cc(Cl)c(Nc2c(-c3ccc(F)cc3Cl)c(C)nn2C)c([N+](=O)[O-])c1 [compound 31],98
7,Cc1nn(C)c(Nc2cc(F)c(F)cc2[N+](=O)[O-])c1-c1ccc(F)cc1Cl [compound 32],98
8,Cc1cc(Cl)cc([N+](=O)[O-])c1Nc1c(-c2ccc(F)cc2Cl)c(C)nn1C [compound 33],92
9,COc1ccc(-c2c(C)nn(C)c2Nc2c(Cl)cccc2[N+](=O)[O-])c(C)c1 [compound 35],0
10,Cc1nn(C)c(Nc2ccc(OCC(F)F)cc2[N+](=O)[O-])c1-c1ccc(F)cc1Cl [compound 36],25
11,Cc1nn(C)c(Nc2c(Cl)cc(Cl)cc2[N+](=O)[O-])c1-c1ccc(F)cc1Br [compound 37],0
12,Cc1nn(C)c(Nc2c(Cl)cccc2[N+](=O)[O-])c1-c1c(F)cccc1Cl [compound 38],0

# System: Puccinia recondita f. sp. tritici
# Assay: Test B: wheat leaf rust, preventive spray on wheat seedlings
# Format: in vivo
# Details: 50 ppm, 100 = 100% disease control, 0 = no control
# Text: as §1
# as §2, with “Puccinia recondita f. sp.” for “Septoria”, “rust)” for “blotch)”, “20°” for “24°”, “24” for “48”, “7” for “17”
# as §3
row,Structure (SMILES),Test B disease control rating [%]
1,Cc1ccc(Nc2c(-c3ccc(F)cc3Cl)c(C)nn2C)c([N+](=O)[O-])c1 [compound 26],99
2,COc1ccc(-c2c(C)nn(C)c2Nc2c(F)cccc2[N+](=O)[O-])c(Cl)c1 [compound 27],100
3,Cc1nn(C)c(Nc2ccc(OC(F)F)cc2[N+](=O)[O-])c1-c1ccc(F)cc1Cl [compound 28],68
4,Cc1nn(C)c(Nc2ccc(OCC#N)cc2[N+](=O)[O-])c1-c1ccc(F)cc1Cl [compound 29],98
5,Cc1nn(C)c(Nc2cc(F)ccc2[N+](=O)[O-])c1-c1ccc(F)cc1Cl [compound 30],86
6,Cc1cc(Cl)c(Nc2c(-c3ccc(F)cc3Cl)c(C)nn2C)c([N+](=O)[O-])c1 [compound 31],100
7,Cc1nn(C)c(Nc2cc(F)c(F)cc2[N+](=O)[O-])c1-c1ccc(F)cc1Cl [compound 32],85
8,Cc1cc(Cl)cc([N+](=O)[O-])c1Nc1c(-c2ccc(F)cc2Cl)c(C)nn1C [compound 33],100
9,COc1ccc(-c2c(C)nn(C)c2Nc2c(Cl)cccc2[N+](=O)[O-])c(C)c1 [compound 35],85
10,Cc1nn(C)c(Nc2ccc(OCC(F)F)cc2[N+](=O)[O-])c1-c1ccc(F)cc1Cl [compound 36],89
11,Cc1nn(C)c(Nc2c(Cl)cc(Cl)cc2[N+](=O)[O-])c1-c1ccc(F)cc1Br [compound 37],100
12,Cc1nn(C)c(Nc2c(Cl)cccc2[N+](=O)[O-])c1-c1c(F)cccc1Cl [compound 38],99

# System: Botrytis cinerea
# Assay: Test E: tomato Botrytis, preventive spray on tomato seedlings
# Format: in vivo
# Details: 50 ppm, 100 = 100% disease control, 0 = no control
# Text: as §1
# as §4, with “Botrytis cinerea” for “Alternaria solani”, “Botrytis)” for “early blight)”, “20°” for “27°”, “24°” for “20°”
# as §3
row,Structure (SMILES),Test E disease control rating [%]
1,Cc1ccc(Nc2c(-c3ccc(F)cc3Cl)c(C)nn2C)c([N+](=O)[O-])c1 [compound 26],100
2,COc1ccc(-c2c(C)nn(C)c2Nc2c(F)cccc2[N+](=O)[O-])c(Cl)c1 [compound 27],100
3,Cc1nn(C)c(Nc2ccc(OC(F)F)cc2[N+](=O)[O-])c1-c1ccc(F)cc1Cl [compound 28],99
4,Cc1nn(C)c(Nc2ccc(OCC#N)cc2[N+](=O)[O-])c1-c1ccc(F)cc1Cl [compound 29],99
5,Cc1nn(C)c(Nc2cc(F)ccc2[N+](=O)[O-])c1-c1ccc(F)cc1Cl [compound 30],67
6,Cc1cc(Cl)c(Nc2c(-c3ccc(F)cc3Cl)c(C)nn2C)c([N+](=O)[O-])c1 [compound 31],99
7,Cc1nn(C)c(Nc2cc(F)c(F)cc2[N+](=O)[O-])c1-c1ccc(F)cc1Cl [compound 32],99
8,Cc1cc(Cl)cc([N+](=O)[O-])c1Nc1c(-c2ccc(F)cc2Cl)c(C)nn1C [compound 33],99
9,COc1ccc(-c2c(C)nn(C)c2Nc2c(Cl)cccc2[N+](=O)[O-])c(C)c1 [compound 35],0
10,Cc1nn(C)c(Nc2ccc(OCC(F)F)cc2[N+](=O)[O-])c1-c1ccc(F)cc1Cl [compound 36],100
11,Cc1nn(C)c(Nc2c(Cl)cc(Cl)cc2[N+](=O)[O-])c1-c1ccc(F)cc1Br [compound 37],88
12,Cc1nn(C)c(Nc2c(Cl)cccc2[N+](=O)[O-])c1-c1c(F)cccc1Cl [compound 38],88

# System: Blumeria graminis f. sp. tritici
# Assay: Test C: wheat powdery mildew, preventive spray on wheat seedlings
# Format: in vivo
# Details: 50 ppm, 100 = 100% disease control, 0 = no control
# Text: as §1
# The test suspension was sprayed to the point of run-off on wheat seedlings. The following day the seedlings were inoculated with a spore dust of Blumeria graminis f. sp. tritici, (also known as Erysiphe graminis f. sp. tritici, the causal agent of wheat powdery mildew) and incubated in a growth chamber at 20° C. for 8 days, after which time visual disease ratings were made.
# as §3
row,Structure (SMILES),Test C disease control rating [%]
1,Cc1ccc(Nc2c(-c3ccc(F)cc3Cl)c(C)nn2C)c([N+](=O)[O-])c1 [compound 26],94
2,COc1ccc(-c2c(C)nn(C)c2Nc2c(F)cccc2[N+](=O)[O-])c(Cl)c1 [compound 27],91
3,Cc1nn(C)c(Nc2ccc(OC(F)F)cc2[N+](=O)[O-])c1-c1ccc(F)cc1Cl [compound 28],69
4,Cc1nn(C)c(Nc2ccc(OCC#N)cc2[N+](=O)[O-])c1-c1ccc(F)cc1Cl [compound 29],87
5,Cc1nn(C)c(Nc2cc(F)ccc2[N+](=O)[O-])c1-c1ccc(F)cc1Cl [compound 30],91
6,Cc1cc(Cl)c(Nc2c(-c3ccc(F)cc3Cl)c(C)nn2C)c([N+](=O)[O-])c1 [compound 31],100
7,Cc1nn(C)c(Nc2cc(F)c(F)cc2[N+](=O)[O-])c1-c1ccc(F)cc1Cl [compound 32],56
8,Cc1cc(Cl)cc([N+](=O)[O-])c1Nc1c(-c2ccc(F)cc2Cl)c(C)nn1C [compound 33],99
9,COc1ccc(-c2c(C)nn(C)c2Nc2c(Cl)cccc2[N+](=O)[O-])c(C)c1 [compound 35],0
10,Cc1nn(C)c(Nc2ccc(OCC(F)F)cc2[N+](=O)[O-])c1-c1ccc(F)cc1Cl [compound 36],56
11,Cc1nn(C)c(Nc2c(Cl)cc(Cl)cc2[N+](=O)[O-])c1-c1ccc(F)cc1Br [compound 37],98
12,Cc1nn(C)c(Nc2c(Cl)cccc2[N+](=O)[O-])c1-c1c(F)cccc1Cl [compound 38],95
